Test results taken from patent US20090170867A1, “TRPV1 ANTAGONISTS INCLUDING SULFONAMIDE SUBSTITUENT AND USES THEREOF” (Shionogi & Co., Ltd., priority 2007, published 2009).
≈ marks a conversion by molar mass, not a printed value. Where two headings read alike, the source gives them in different places.

Columns and labels:
Aqueous solubility = assay type: physicochemical; conditions: aqueous solution
human TRPV1 [1] = biological target: T1, human TRPV1 (Homo sapiens, UniProt Q8NER1); assay: Capsaicin-based assay, Protocol 2 (TRPV1/CHO cells, Fluo-4, FLIPR); assay type: cell-based; conditions: capsaicin 100 nM final, mean ± SEM, number of trials in parentheses, read-out: TRPV1 IC50 Potency, Human Capsaicin CHO (hCAP-CHO)
T1 construct: using primers designed surrounding the complete hTRPV1 open reading frame; expressed in transfected cells; host or cells: CHO-K1 cells stably transfected with pcDNA3.1(-)-hVR1 plasmid
T1 sequence (Q8NER1 whole entry): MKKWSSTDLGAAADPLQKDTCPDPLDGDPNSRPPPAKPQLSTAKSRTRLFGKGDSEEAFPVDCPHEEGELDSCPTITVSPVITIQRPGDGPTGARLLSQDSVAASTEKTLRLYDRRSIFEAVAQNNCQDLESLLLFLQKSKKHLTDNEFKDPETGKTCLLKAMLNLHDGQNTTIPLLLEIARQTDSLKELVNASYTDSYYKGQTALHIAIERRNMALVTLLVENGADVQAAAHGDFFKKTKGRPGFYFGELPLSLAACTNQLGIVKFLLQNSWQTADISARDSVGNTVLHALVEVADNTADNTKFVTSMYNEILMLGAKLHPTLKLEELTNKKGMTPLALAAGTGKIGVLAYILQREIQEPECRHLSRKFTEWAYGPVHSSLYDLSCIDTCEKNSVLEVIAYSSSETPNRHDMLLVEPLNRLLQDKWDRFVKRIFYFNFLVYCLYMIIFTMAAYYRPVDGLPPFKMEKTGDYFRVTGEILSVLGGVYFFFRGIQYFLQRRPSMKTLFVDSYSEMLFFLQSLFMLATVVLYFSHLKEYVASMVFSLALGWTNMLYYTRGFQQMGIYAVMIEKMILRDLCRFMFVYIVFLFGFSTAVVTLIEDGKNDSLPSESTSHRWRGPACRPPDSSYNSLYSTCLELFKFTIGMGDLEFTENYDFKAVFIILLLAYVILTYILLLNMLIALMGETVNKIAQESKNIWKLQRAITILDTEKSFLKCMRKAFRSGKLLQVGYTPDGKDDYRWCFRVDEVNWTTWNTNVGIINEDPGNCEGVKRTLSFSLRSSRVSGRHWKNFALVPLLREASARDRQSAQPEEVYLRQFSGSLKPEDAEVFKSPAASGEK
Summary of the method: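 CHO cells stably transfected with human TRPV1 cDNA, kept under G418 selection, loaded with 3 μM Fluo-4 for 1 h. Calcium fluorescence followed on FLIPR after a 15 s baseline against capsaicin challenge; compounds at final 100 μM to 1.5625 μM, curves fitted over the full time course.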

human TRPV1 [2] = biological target: T1, human TRPV1; assay: pH-based assay, Protocol 2 (TRPV1/CHO cells, Fura-2 AM, FDSS-3000, pH 5.0-5.1); assay type: cell-based; conditions: H2SO4 agonist, mean ± SEM, number of trials in parentheses, read-out: TRPV1 IC50 Potency, Human pH CHO (hpH-CHO)
[3] = pH 1.2, simulated gastric fluid, read-out: aqueous solubility at pH 1.2
[4] = pH 6.8, aqueous buffer, read-out: aqueous solubility at pH 6.8

| SMILES | solubility (Aqueous solubility; [3]) [µM] | solubility (Aqueous solubility; [4]) [µM] | IC50 (human TRPV1 [1]) [µM] | IC50 (human TRPV1 [2]) [µM] |
| --- | --- | --- | --- | --- |
| O=C(Nc1ccc(C(F)(F)F)c(Cl)c1)N1CC=C(c2ncc([C@H](O)CO)cc2F)CC1 [Compound U3] | > 50 | 26.4 (≈ 12.1 µg/mL) | 0.0279 ± 0.0099 | 0.0135 |
| O=C(Nc1ccc(C(F)(F)F)cc1)N1CC=C(c2ncc([C@H](O)CO)cc2Cl)CC1 [Compound Z1, (S)-3-Chloro-5-(1,2-dihydroxy-ethyl)-3′,6′-dihydro-2′H-[2,4′]bipyridinyl-1′-carboxylic acid (4-trifluoromethyl-phenyl)amide] | > 50 | > 50 | 0.0758 ± 0.0124 | 0.0116 ± 0.0007 |
